Results on 21 molecules are retold here after patent US8906933B2, “Dihydropyrimidin-2(1H)-one compounds as neurokinin-3 receptor antagonists” (N30 Pharmaceuticals, Inc., priority 2010, dated 2014).

The target of assay [1] is T1, human NK3 receptor (Homo sapiens (Human), UniProt P29371). Kind of assay: Human NK3 receptor binding assay at 1 uM. Particulars: 1 μM test compound; [3H]SR142801, CHO cell membranes; read-out: percent inhibition at 1 μM. The protocol:
Antagonist activity was evaluated at a concentration of 1 μM for a representative subset of test compounds, and the results were expressed as the percent inhibition at that concentration.
Each test compound was evaluated at a single concentration of 1 μM. […] The results are expressed as a percent of control specific binding ((measured specific binding/control specific binding)×100) obtained in the presence of the test compounds.

The target in assay [2] is T1, human NK3 receptor. Put plainly: Human NK3 receptor binding assay at 10 μM. Particulars: 10 μM test compound; [3H]SR142801, CHO cell membranes; read-out: percent inhibition at 10 μM. The protocol:
Antagonist activity was evaluated at a concentration of 10 μM for a representative subset of test compounds, and the results were expressed as the percent inhibition at that concentration.
Each test compound was evaluated at a single concentration of 10 μM. […] The results are expressed as a percent of control specific binding ((measured specific binding/control specific binding)×100) obtained in the presence of the test compounds.

In the next assay the target is GSNOR (Homo sapiens (Human), UniProt P11766). Kind of assay: GSNOR IC50 (method in incorporated applications). It is filed as biochemical.
GSNOR, sequence (P11766 whole entry): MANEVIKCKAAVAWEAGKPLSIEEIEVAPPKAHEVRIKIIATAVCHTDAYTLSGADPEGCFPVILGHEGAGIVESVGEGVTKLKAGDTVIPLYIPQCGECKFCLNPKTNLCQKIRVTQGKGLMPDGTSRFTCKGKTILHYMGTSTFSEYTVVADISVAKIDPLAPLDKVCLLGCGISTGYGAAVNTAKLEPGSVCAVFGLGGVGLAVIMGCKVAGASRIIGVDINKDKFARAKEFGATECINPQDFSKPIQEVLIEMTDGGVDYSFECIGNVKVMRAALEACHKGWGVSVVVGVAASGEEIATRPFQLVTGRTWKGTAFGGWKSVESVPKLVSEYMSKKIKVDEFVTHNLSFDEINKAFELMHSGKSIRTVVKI
Assay [3] deals with T1, human NK3 receptor. Put plainly: biochemical.
Method: Evaluation of the affinity of compounds for the human NK3 receptor from transfected CHO cells was performed using an antagonist radioligand binding assay. The antagonist activity of a representative subset of test compounds was evaluated over a range of concentrations, and the results were expressed as IC50 values.
Receptor binding assays were performed using crude membranes prepared from CHO cells expressing human NK3 receptor. Osanetant (SR142801), a non-peptide NK3 antagonist, was used as a ligand, and SB222200 was used as a positive control reference compound. The assay was performed with cell membrane homogenates (24 μg protein) incubated for 120 min at 22° C. with 0.4 nM [^3H]SR142801 in the absence or presence of the test compound in a buffer containing 20 mM Hepes/NaOH (pH 7.4), 120 mM NaCl, 1 mM MnCl2, 0.01% bacitracin, 0.002% aprotinin and 0.1% BSA. Following incubation, the samples were filtered rapidly under vacuum through glass fiber filters (GF/B, Packard) that had been presoaked with 0.3% PEI. The filters were rinsed several times with ice-cold 50 mM Tris/HCl using a 96-sample cell harvester (Unifilter, Packard), dried, and counted for radioactivity in a scintillation counter (Topcount, Packard) using a scintillation cocktail (Microscint 0, Packard). […] The standard reference compound, SB222200, was tested in each experiment. Nonspecific binding was determined in the presence of 10 μM SB222200. The specific ligand binding to the receptor is defined as the difference between the total binding and the nonspecific binding. The IC50 values (concentration causing a half-maximal inhibition of control specific binding) and Hill coefficients (nH) were determined by non-linear regression analysis of the competition curves generated with mean replicate values using Hill equation curve fitting (Y=D+[(A−D)/(1+(C/C50)^nH)], where Y=specific binding, D=minimum specific binding, A=maximum specific binding, C=compound concentration, C50=IC50, and nH=slope factor). […] The inhibition constants (Ki) were calculated using the Cheng Prusoff equation (Ki=IC50/(1+(L/KD)), where L=concentration of radioligand in the assay, and KD=affinity of the radioligand for the receptor). A scatchard plot was used to determine the Kd.
Assay [4] has as its target T1, human NK3 receptor. Kind of assay: Human neurokinin NK3 receptor antagonist effect (agonist-induced Ca2+ mobilization, CHO cells). It is filed as cell-based. Particulars: 10 uM; response to 1 nM [MePhe7]-NKB, CHO cells transfected with human NK3 receptor. The protocol:
This model evaluates the antagonist activity of compounds in CHO cells transfected with the human NK3 receptor. Antagonist activity is determined by measuring the effect of compounds on agonist-induced cytosolic Ca^2+ ion mobilization using a fluorimetric detection method.
The cells are suspended in DMEM buffer (Invitrogen) supplemented with 0.1% FCS and distributed in 96-well microplates at a density of 3×10^4 cells/well. The fluorescent probe (Calcium4, Molecular Device) is mixed with probenicid in HBSS buffer plus 20 mM Hepes (pH 7.4) (Invitrogen) and added into each well. The probe is allowed to equilibrate with the cells for 60 minutes at 37° C. followed by a 15 minute incubation at 22° C. Thereafter, the assay plates are positioned in a microplate reader (CellLux, PerkinElmer) and the test compound, reference antagonist or HBSS buffer is added. 5 minutes later, 1 nM [MePhe^7]-NKB or HBSS buffer (basal control) is added, and changes in fluorescence intensity are measured.
The standard reference antagonist is SB 222200, which is tested in each experiment at several concentrations to generate a concentration-response curve from which an IC50 value can be calculated.
A general note: Calcium assays in cells follow changes in intracellular calcium, usually with a dye or a luminescent sensor.

Assay [5] concerns the target T1, human NK3 receptor. Put plainly: Human neurokinin NK3 receptor agonist effect (Ca2+ mobilization, CHO cells). It is filed as cell-based. Particulars: highest tested concentration; CHO cells transfected with human NK3 receptor. The protocol:
This model evaluates the agonist activity of compounds in CHO cells transfected with the human NK3 receptor. Agonist activity is determined by measuring the effect of compounds on cytosolic Ca^2+ ion mobilization using a fluorimetric detection method.
The transfected CHO cells are suspended in DMEM buffer (Invitrogen) supplemented with 0.1% FCS, then distributed in 96-well microplates at a density of 3×10^4 cells/well. The fluorescent probe (Calcium4, Molecular Device) is mixed with probenicid in HBSS buffer plus 20 mM Hepes (pH 7.4) (Invitrogen) and added into each well. The probe is allowed to equilibrate with the cells for 60 minutes at 37° C. followed by a 15 minute incubation at 22° C. Thereafter, the assay plates are positioned in a microplate reader (CellLux, PerkinElmer) and the test compound, reference agonist or HBSS buffer (basal control) is added. Changes in fluorescence intensity, which varies proportionally to the free cytosolic Ca^2+ ion concentration, are then measured. For stimulated control measurements, [MePhe^7]-NKB at 10 nM is added in separate assay wells, and the results are expressed as a percent of the control response to 10 nM [MePhe^7]-NKB.
The standard reference agonist is [MePhe^7]-NKB, which is tested in each experiment at several concentrations to generate a concentration-response curve from which an EC50 value can be calculated.

T1 sequence (P29371 whole entry): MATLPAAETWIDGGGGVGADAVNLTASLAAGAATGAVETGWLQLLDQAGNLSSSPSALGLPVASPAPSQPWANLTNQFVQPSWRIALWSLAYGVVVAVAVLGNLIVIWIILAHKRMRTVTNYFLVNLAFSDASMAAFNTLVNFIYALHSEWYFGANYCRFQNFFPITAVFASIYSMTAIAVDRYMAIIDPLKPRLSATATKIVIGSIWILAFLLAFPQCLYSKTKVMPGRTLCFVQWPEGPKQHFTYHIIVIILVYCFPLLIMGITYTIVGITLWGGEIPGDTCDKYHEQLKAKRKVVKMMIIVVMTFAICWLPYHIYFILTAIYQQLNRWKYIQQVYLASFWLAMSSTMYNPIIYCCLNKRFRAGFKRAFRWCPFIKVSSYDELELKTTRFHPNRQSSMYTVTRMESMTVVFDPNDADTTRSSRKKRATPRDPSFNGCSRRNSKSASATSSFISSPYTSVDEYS

Turning to `CCOc1cc(C2NC(=O)NC(c3cccc(OC)c3)=C2c2ccccc2)cc([N+](=O)[O-])c1O` (centres unmarked) [4-(3-ethoxy-4-hydroxy-5-nitrophenyl)-6-(3-methoxyphenyl)-5-phenyl-3,4-dihydropyrimidin-2(1H)-one], the inhibition at 1 µM on human NK3 receptor [1] is more than 50%. Further, on human NK3 receptor [2], the inhibition at 10 µM is more than 50%.
The molecule `Cn1cc(C2=C(c3ccsc3)[C@H](c3ccc(C(=O)O)c(O)c3)NC(=O)N2)cn1` [2-hydroxy-4-(6-(1-methyl-1H-pyrazol-4-yl)-2-oxo-5-(thiophen-3-yl)-1,2,3,4-tetrahydropyrimidin-4-yl)benzoic acid] returned a half-inhibitory concentration (IC50) against GSNOR of 23 nM.
With `CCOc1cc(C2NC(=O)NC(c3ccccc3)=C2c2ccccc2)cc2oc(=O)[nH]c12` (centres unmarked) [4-ethoxy-6-(2-oxo-5,6-diphenyl-1,2,3,4-tetrahydropyrimidin-4-yl)benzo[d]oxazol-2(3H)-one], the inhibition at 1 µM at human NK3 receptor [1] was more than 50%. This molecule also displayed an IC50 on human NK3 receptor [3] not above 1000 nM.
The corresponding values for `CCOc1cc(C2NC(=O)N(C)C(c3ccccc3)=C2c2ccccc2)cc([N+](=O)[O-])c1O` (centres unmarked) [4-(3-ethoxy-4-hydroxy-5-nitrophenyl)-1-methyl-5,6-diphenyl-3,4-dihydropyrimidin-2(1H)-one] are more than 50% and not above 1000 nM.
The corresponding values for `CCOc1cc(C2C(c3ccccc3)=C(c3ccccc3)N(C)C(=O)N2C)cc([N+](=O)[O-])c1O` (centres unmarked) [4-(3-ethoxy-4-hydroxy-5-nitrophenyl)-1,3-dimethyl-5,6-diphenyl-3,4-dihydropyrimidin-2(1H)-one] are more than 50% and not above 100 nM.
For the molecule `CCOc1cc([C@@H]2NC(=O)NC(c3ccccc3)=C2c2ccsc2)cc([N+](=O)[O-])c1O` [4-(3-ethoxy-4-hydroxy-5-nitrophenyl)-6-phenyl-5-(thiophen-3-yl)-3,4-dihydropyrimidin-2(1H)-one], 22000 nM corresponded to half-maximal inhibition at human NK3 receptor [3] (IC50).
In the case of `CCOc1cc(C2NC(=O)NC(c3ccccc3)=C2c2cccc(C)c2)cc([N+](=O)[O-])c1O` (centres unmarked) [4-(3-ethoxy-4-hydroxy-5-nitrophenyl)-6-phenyl-5-m-tolyl-3,4-dihydropyrimidin-2(1H)-one], the inhibition at 1 µM at human NK3 receptor [1] is more than 50%. This molecule also had a 50% inhibitory concentration (IC50) against human NK3 receptor [3] not above 1000 nM.
`CCOc1cc(C2NC(=O)NC(c3ccccc3)=C2c2ccccc2F)cc([N+](=O)[O-])c1O` (centres unmarked) [4-(3-ethoxy-4-hydroxy-5-nitrophenyl)-5-(2-fluorophenyl)-6-phenyl-3,4-dihydropyrimidin-2(1H)-one]: the inhibition at 1 µM on human NK3 receptor [1] was more than 50%. The inhibition at 10 µM on human NK3 receptor [2] was more than 50%.
For `CCOc1cc(C2C(c3ccccc3)=C(c3ccccc3)NC(=O)N2C)cc([N+](=O)[O-])c1O` (centres unmarked) [4-(3-ethoxy-4-hydroxy-5-nitrophenyl)-3-methyl-5,6-diphenyl-3,4-dihydropyrimidin-2(1H)-one], the inhibition at 1 µM at human NK3 receptor [1] is more than 50%. Further, the half-inhibitory concentration (IC50) against human NK3 receptor [3] was not above 1000 nM.
In turn, `CCOc1cc([C@H]2NC(=O)NC(c3ccccc3)=C2c2ccccc2)cc([N+](=O)[O-])c1O` [(R)-4-(3-ethoxy-4-hydroxy-5-nitrophenyl)-5,6-diphenyl-3,4-dihydropyrimidin-2(1H)-one] registered an IC50 at human NK3 receptor [3] of 110 nM.
Still for that read-out and setting: the figure for `CCOc1cc([C@H]2NC(=O)NC(c3ccccc3)=C2c2ccsc2)cc([N+](=O)[O-])c1O` [(R)-4-(3-ethoxy-4-hydroxy-5-nitrophenyl)-6-phenyl-5-(thiophen-3-yl)-3,4-dihydropyrimidin-2(1H)-one] is 1400 nM.
For the molecule `CCOc1cc(C2NC(=O)NC(c3ccc(Cl)c(F)c3)=C2c2ccccc2)cc([N+](=O)[O-])c1O` (centres unmarked) [6-(4-chloro-3-fluorophenyl)-4-(3-ethoxy-4-hydroxy-5-nitrophenyl)-5-phenyl-3,4-dihydropyrimidin-2(1H)-one], on human NK3 receptor [1], the inhibition at 1 µM is more than 50%. The inhibition at 10 µM at human NK3 receptor [2] was more than 50%.
At human NK3 receptor [3], `CCOc1cc([C@@H]2NC(=O)NC(c3ccccc3)=C2c2ccccc2)cc([N+](=O)[O-])c1O` [4-(3-ethoxy-4-hydroxy-5-nitrophenyl)-5,6-diphenyl-3,4-dihydropyrimidin-2(1H)-one] gave an IC50 of 19000 nM.
Regarding `COc1cc(C2NC(=O)NC(c3ccccc3)=C2c2ccccc2)cc([N+](=O)[O-])c1O` (centres unmarked) [4-(4-hydroxy-3-methoxy-5-nitrophenyl)-5,6-diphenyl-3,4-dihydropyrimidin-2(1H)-one], the inhibition at 1 µM at human NK3 receptor [1] was more than 50%. Further, on human NK3 receptor [2], the inhibition at 10 µM was more than 50%.
Consider `CCOc1cc(C2NC(=O)NC(c3ccccc3)=C2C2CCCCC2)cc([N+](=O)[O-])c1O` (centres unmarked) [5-cyclohexyl-4-(3-ethoxy-4-hydroxy-5-nitrophenyl)-6-phenyl-3,4-dihydropyrimidin-2(1H)-one], for which the inhibition at 1 µM at human NK3 receptor [1] is more than 50%. Also, the antagonist effect result at human NK3 receptor [4] is “antagonist effect was seen”. The inhibition at 10 µM at human NK3 receptor [2] was more than 50%. Further, the agonist effect result at human NK3 receptor [5] is on record as “no effect was seen”. At human NK3 receptor [3], this molecule returned an IC50 not above 100 nM.
Turning to `CCOc1cc(C2NC(=O)NC(c3ccccc3)=C2c2cccc(Cl)c2)cc([N+](=O)[O-])c1O` (centres unmarked) [5-(3-chlorophenyl)-4-(3-ethoxy-4-hydroxy-5-nitrophenyl)-6-phenyl-3,4-dihydropyrimidin-2(1H)-one], the inhibition at 1 µM on human NK3 receptor [1] was more than 50%. This molecule displayed an IC50 against human NK3 receptor [3] not above 1000 nM.
At human NK3 receptor [3], `CCOc1cc([C@@H]2NC(=O)NC(c3cccnc3)=C2c2ccccc2)cc([N+](=O)[O-])c1O` [4-(3-ethoxy-4-hydroxy-5-nitrophenyl)-5-phenyl-6-(pyridin-3-yl)-3,4-dihydropyrimidin-2(1H)-one] displayed an IC50 of 55000 nM.
On the same count and under the same terms, the figure for `CCOc1cc([C@H]2NC(=O)NC(c3cccnc3)=C2c2ccccc2)cc([N+](=O)[O-])c1O` [(R)-4-(3-ethoxy-4-hydroxy-5-nitrophenyl)-5-phenyl-6-(pyridin-3-yl)-3,4-dihydropyrimidin-2(1H)-one] is 700 nM.
As for `CCOc1cc(C2NC(=O)NC(c3ccccc3)=C2c2ccccc2)cc(C#N)c1O` (centres unmarked) [3-ethoxy-2-hydroxy-5-(2-oxo-5,6-diphenyl-1,2,3,4-tetrahydropyrimidin-4-yl)benzonitrile], the inhibition at 1 µM on human NK3 receptor [1] is more than 50%. Also, the inhibition at 10 µM on human NK3 receptor [2] is more than 50%. At human NK3 receptor [3], this molecule had an IC50 not above 1000 nM.
As to `Cn1cc(C2=C(c3ccsc3)C(c3ccc(C(=O)O)c(O)c3)NC(=O)N2)cn1` (racemic) [2-hydroxy-4-(6-(1-methyl-1H-pyrazol-4-yl)-2-oxo-5-(thiophen-3-yl)-1,2,3,4-tetrahydropyrimidin-4-yl)benzoic acid], the IC50 on GSNOR was determined as 39 nM.
With `COCCOc1cc(C2NC(=O)NC(c3ccccc3)=C2c2ccccc2)cc([N+](=O)[O-])c1O` (centres unmarked) [4-(4-hydroxy-3-(2-methoxyethoxy)-5-nitrophenyl)-5,6-diphenyl-3,4-dihydropyrimidin-2(1H)-one], the inhibition at 1 µM at human NK3 receptor [1] is more than 50%. The inhibition at 10 µM on human NK3 receptor [2] is more than 50%.

By inhibition is commonly meant the share of the control response that was lost under treatment. As usually defined, the IC50 is the concentration needed to halve the response being measured. The low end stands for higher potency, the high end for lower potency.
